Measurements taken from patent US8163788B2, “Low-molecular inhibitors of cytohesin-family guanine nucleotide exchange factors” (Rheinische Friedrich-Wilhelms Universitat Bonn, priority 2004, dated 2012).
Like-named read-outs stand apart in the source and are kept apart here.

Key:
sec7-domain of Gea2 = biological target: T1, sec7-domain of Gea2 (Saccharomyces cerevisiae, UniProt P39993); assay: GDP/GTP exchange on NΔ17-ARF1 catalysed by sec7-domain (tryptophan fluorescence); format: biochemical
T1 construct: 1 μM of the purified sec7-domain of cytohesin-1, cytohesin-2 and Gea2; made in house; host or cells: E. coli BL21DE3
T1 sequence (P39993 570-714): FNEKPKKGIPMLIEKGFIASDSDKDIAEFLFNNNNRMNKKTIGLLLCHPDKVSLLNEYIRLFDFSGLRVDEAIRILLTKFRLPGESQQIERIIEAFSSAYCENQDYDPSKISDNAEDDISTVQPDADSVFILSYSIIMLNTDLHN
Protocol: (§1) The IC50 value for the inhibition of the exchange activity of the sec7-domains of various guanine nucleotide exchange factors of the compounds (9), (10), (11), (12), (14) and (19) was determined.
(§2) For this purpose, the sec7-domains of cytohesin-1, cytohesin-2 and Gea2 as well as the NΔ 17-ARF 1, a mutant of the ARF protein, recombinantly expressed in E. coli BL21DE3, were purified by means of a standard method and used as catalysts for the exchange from GDP to GTP in GTPases of the family of the ADP ribosylation factors. The exchange from GDP to GTP induces a conformation change of the ribosylation factor, as a result of which the fluorescence of a tryptophan radical of the protein is increased.
(§3) In 50 mM of HEPES, pH 7.4, 120 mM of KCl, 1 mM of MgCl2, 45 μM of GTP S, the compounds (9), (10), (11), (12), (14) and (19), each in concentrations of 1 μM to 30 μM, were added to 1 μM NΔ 17-ARF1 and, in each case, 1 μM of the purified sec7-domain of cytohesin-1, cytohesin-2 and Gea2, and the fluorescence was measured in a Varioskan, Thermo LifeSciences Inc., at the following wavelengths: excitation: 275 nm, emission 340 nm.
(§4) The IC50 value can be determined by plotting the initial rise of the fluorescence signal against the added concentrations of the compounds. The IC50 value corresponds to the concentration of the compounds at which the activity of the protein is reduced to half. […] Brefeldin A, a specific inhibitor of the […] Gea2 served as the control.

[1] = biological target: T2, sec7-domain of cytohesin-1 (Homo sapiens, UniProt Q15438); assay: as above; format: biochemical; conditions: 1 μM NΔ17-ARF1, 1 μM sec7-domain, compounds 1 μM to 30 μM
T2 construct: central sec7-domain, corresponding to the amino acids 62-244 in cytohesin-1; made in house; host or cells: E. coli BL21DE3
T2 sequence (Q15438 62-244): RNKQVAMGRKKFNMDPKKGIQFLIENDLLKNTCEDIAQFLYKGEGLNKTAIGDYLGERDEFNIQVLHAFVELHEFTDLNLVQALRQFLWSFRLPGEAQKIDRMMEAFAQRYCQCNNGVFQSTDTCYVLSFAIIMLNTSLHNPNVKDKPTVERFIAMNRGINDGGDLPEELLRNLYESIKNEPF
Protocol: as §1, §2, §3, §4

[2] = tested on: sec7-domain of cytohesin-1; assay: as above; format: biochemical; conditions: conclusion in words from Table 1
Protocol: as §1, §2, §3, §4

[3] = biological target: T3, sec7-domain of cytohesin-2 (Homo sapiens, UniProt Q99418); assay: as above; format: biochemical; conditions: 1 μM NΔ17-ARF1, 1 μM sec7-domain, compounds 1 μM to 30 μM
T3 construct: 1 μM of the purified sec7-domain of cytohesin-1, cytohesin-2 and Gea2; made in house; host or cells: E. coli BL21DE3
T3 sequence (Q99418 72-201 limits assumed): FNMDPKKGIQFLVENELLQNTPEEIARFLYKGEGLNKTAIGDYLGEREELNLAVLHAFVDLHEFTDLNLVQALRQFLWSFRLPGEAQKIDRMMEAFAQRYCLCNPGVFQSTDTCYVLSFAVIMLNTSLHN
Protocol: as §1, §2, §3, §4

cytohesin-2 = assay: luciferase assay in HeLa-cells (serum response element activation, MAPK path via cytohesin-2); format: cell-based; conditions: compounds 1 μM to 50 μM, read-out: IC50 (luciferase signal)
Protocol: The IC50 value was determined in comparison to the LC50 value in a luciferase assay in HeLa-cells, corresponding to the test conditions described in Theis, M. G. et al., Proc Natl Acad Sci USA, 101, 11221-26 (2004). The stimulation of receptor tyrosine kinases by means of growth factors contained in fetal calf serum activates the MAPK path via cytohesin-2 and results in an activation of the serum response element. This activation manifests itself in the quantity of luciferase produced in the cells.
Compounds (9), (10), (11), (12), (14) and (19) were each added in concentrations of 1 μM to 50 μM to 6.5×10^4 HeLa-cells.
The IC50 value was determined from the plotting of the concentration of the compound against the intensity of the luciferase signal.

[4] = MTT assay (LC50) in HeLa-cells; format: cell-based; conditions: human, after 24 hours
Protocol: The LC50 values were determined by an MTT assay according to a standard method.
The LC50 value describes the lethal concentration at which […] died within 24 hours after a one-time administration.

[5] = tested on: human peripheral blood cells (PBL); assay: adhesion of human peripheral blood cells (PBL) to ICAM-1 after stimulation with OKT3 or PMA; format: cell-based; conditions: stimulation with OKT3; FIG. 2
Excerpt: Human peripheral blood cells (PBL) were stimulated with agonists that activate a beta-2 integrin-dependent adhesion. In these primary human lymphocytes, the beta-2 integrin-dependent adhesion can be activated by cytohesins at the specific ligands ICAM-1.
The agonists employed were the monoclonal antibody OKT3 (hybridome of ATCC, mAb OKT3 purified on protein A, according to standard methods from Current Protocols in Immunology, 5th Ed., Coligan et al., Edts, Wiley 2004) against the CD3 complex, a T-cell receptor and phorbolester (PMA), which non-physiologically activates intracellular signal cascades in human PBL including integrin-dependent adhesion while circumventing cytohesins.
Cells from human blood were isolated according to standard methods (Current Protocols in Immunology, 5th Ed., 2004, Coligan et al., Edts, Wiley). Cell culture dishes coated with ICAM-1 were produced by means of recombinant ICAM-1-Fc fusion protein (Kolanus, W. et al., Cell 86, 233-42 (1996), Geiger, C. et al., EMBO J., 19, 2525-2536 (2000)). 300,000 human peripheral blood cells (PBL) were stimulated for 30 minutes with 2 μg/ml of OKT3 or 40 ng/ml of phorbolester (PMA) in Hank's BSS, (Gibco; composition (g/l): CaCl2x2H2O (0.185), KCl (0.4), KH2PO4 (0.06), MgCl2x6H2O (0.1), MgSO4x7H2O (0.1), NaCl (8.0), NaHCO3 (0.35), Na2HPO4 (0.048), D-glucose (1.0)), and placed for one hour in Hank's BSS onto the ICAM-1 coated cell culture dishes, whereby the agonists were not removed. Non-bound cells were removed by washing with Hank's BSS. The percentage of bound cells was determined by counting under a microscope using a standard counting grid.

Compound | IC50 (sec7-domain of Gea2) | IC50 [1] | specificity of inhibition of sec7-domains (cytohesins vis-à-vis Gea2) [2] | IC50 [3] | IC50 (cytohesin-2) | CC50 at 24 h [4] | effect on OKT3-mediated adhesion in primary human lymphocytes [5] | IC50 (sec7-domain of Gea2; 1 μM NΔ17-ARF1, 1 μM sec7-domain, compounds 1 μM to 30 μM, read-out: IC50 Gea2-sec7)
CCOc1nc(-c2ccccc2F)n(-c2ccc(NC(=O)CSc3ccccc3)cc2)n1 [Compound 11] | 42 ± 4 µM | 8.8 ± 0.3 µM | specific inhibition of the sec7-domains of the cytohesins | 12.4 ± 0.3 µM | 5 ± 1.5 µM | 142 ± 12 µM |  | 
CCOc1nc(-c2cccc(F)c2)n(-c2ccc(NC(=O)Cc3cccs3)cc2)n1 [Compound 10] | 67 ± 5 µM | 12.6 ± 0.3 µM | specific inhibition of the sec7-domains of the cytohesins | 16.1 ± 0.9 µM | 23 ± 5 µM | > 150 µM |  | 
CC(C)(C)c1ccc(S(=O)(=O)N(Cc2ccc(OS(C)(=O)=O)cc2)CC2CCCO2)cc1 (stereo not shown) [Control 1, reference compound] |  |  |  |  | > 50 µM | > 150 µM |  | 
CCOCCCN(Cc1nc(C(=O)NCCCOCO)co1)C(=O)c1ccccc1Br [Control 2, reference compound] |  |  |  |  |  |  | no effect | 
O=C(O)[C@H]1CSCN1C(=O)Cc1cccs1 [Compound 19] |  | 15 ± 0.3 µM | specific inhibition of the sec7-domains of the cytohesins | 20 ± 0.6 µM | 3.5 ± 0.5 µM | > 150 µM |  | 
O=C(CN(CC1CCCO1)C(=O)Cc1cccs1)N(Cc1ccc(F)cc1)Cc1ccco1 (stereo not shown) [Compound 14] |  | 14.8 ± 0.3 µM | specific inhibition of the sec7-domains of the cytohesins | 19.3 ± 0.3 µM | 3 ± 1 µM |  |  | 
C[C@H]1CCC/C=C/[C@@H]2C[C@H](O)C[C@H]2[C@H](O)/C=C/C(=O)O1 [Brefeldin A, reference compound] |  | > 150 µM | specific inhibition of the sec7-domain of Gea2 | > 150 µM |  |  |  | 23 ± 1 µM
CN(c1cc(Cl)nc(SCc2ccc(C(=O)NCc3ccco3)cc2)n1)C1CCCCC1 [Compound 12] | 22 ± 2 µM | 8 ± 0.3 µM | specific inhibition of the sec7-domains of the cytohesins | 19.5 ± 0.3 µM | 5 ± 1.5 µM | > 150 µM |  | 
